Consider 14 molecules from PubChem BioAssay AID743422 (The Scripps Research Institute Molecular Screening Center, 2014).

Molecules are shown by their SMILES. Activity calls are given as the source filed them. The rule behind the calls is not given here.

The target of the experiment is Sphingosine 1-phosphate receptor 1 (Homo sapiens) (UniProt P21453). Kind of experiment: S1P1 receptor antagonism, potency – cell-based, luminescence, late-stage, counter-screen for S1PR3 antagonist project, dose response (AID 743422). Conditions: Tango EDG-1-bla U2OS cells, beta-lactamase FRET reporter, 5 h S1P.
Chain of Sphingosine 1-phosphate receptor 1 (Homo sapiens) (P21453 whole entry, looked up): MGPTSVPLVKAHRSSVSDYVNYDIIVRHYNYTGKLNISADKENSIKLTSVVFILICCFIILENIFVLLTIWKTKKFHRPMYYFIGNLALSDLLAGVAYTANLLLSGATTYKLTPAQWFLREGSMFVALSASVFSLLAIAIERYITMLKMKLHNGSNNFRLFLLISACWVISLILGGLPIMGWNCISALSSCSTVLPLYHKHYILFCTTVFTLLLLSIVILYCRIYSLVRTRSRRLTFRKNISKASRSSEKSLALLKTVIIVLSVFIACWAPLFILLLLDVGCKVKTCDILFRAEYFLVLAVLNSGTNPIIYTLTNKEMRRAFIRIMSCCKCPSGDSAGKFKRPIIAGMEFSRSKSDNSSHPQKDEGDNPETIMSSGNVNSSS
As for `COc1ccc(C(=O)NC(c2ccccc2)c2nc(-c3ccccc3)no2)cc1` (centres undefined), the IC50 (usually the midpoint of a concentration-inhibition curve) is > 28.2 µM (inactive).

As to `O=C(c1cccc(Cl)c1)N(CCO)C(c1ccc(Cl)c(Cl)c1)c1nc(-c2ccccc2)no1` (centres undefined), the IC50 is 2.7 µM.

With `O=C(NC(c1ccccc1)c1nc(-c2ccccc2)no1)c1cccc(Cl)c1` (centres undefined), the IC50 is 1.6 µM.

Take `O=C(NC(c1ccc(Cl)cc1)c1nc(-c2ccccn2)no1)c1cccc(Cl)c1` (centres undefined): the IC50 is > 28.2 µM (inactive).

Take `O=C(NC(Cc1ccccc1)c1nc(-c2ccccc2)no1)c1cccc(Cl)c1` (centres undefined): the IC50 was > 28.2 µM (inactive).

In the case of `O=C(NC(c1ccc(Cl)cc1)c1nc(-c2ccccc2)no1)c1cccc(Cl)c1` (centres undefined), the IC50 is > 28.2 µM (inactive).

Turning to `Cc1ccc(C(=O)NC(c2ccccc2)c2nc(-c3ccccc3)no2)cc1` (centres undefined), the IC50 is > 28.2 µM (inactive).

With `O=C(NC(c1cccc(Cl)c1)c1nc(-c2ccccc2)no1)c1cc(Cl)cc(Cl)c1` (centres undefined), the half-inhibitory concentration (IC50) is 0.112 µM.

As to `O=C(NC(c1ccccc1)c1nc(-c2ccccc2)no1)c1ccc(Cl)cc1` (centres undefined), the IC50 is 7.3 µM.

As to `O=C(NC(c1ccc(Cl)cc1)c1nc(-c2ccccc2)no1)c1ccc(Cl)c(Cl)c1` (centres undefined), the IC50 result was “inactive”.

As to `O=C(NC(c1ccc(Cl)cc1)c1nc(-c2cccc(Cl)c2)no1)c1cccc(Cl)c1` (centres undefined), the IC50 was > 28.2 µM (inactive).

`O=C(NC(c1ccc(Cl)c(Cl)c1)c1nc(-c2ccccc2)no1)c1ccc(Cl)cc1` (centres undefined): the IC50 is 1.2 µM.

`CCc1ccc(C(NC(=O)c2cccc(Cl)c2)c2nc(-c3ccccc3)no2)cc1` (centres undefined): the IC50 is > 28.2 µM (inactive).

With `O=C(NC(c1ccc(Br)cc1)c1nc(-c2ccccc2)no1)c1ccc(Cl)c(Cl)c1` (centres undefined), the IC50 was > 28.2 µM (inactive).
